These results are taken from publication PMC3234531 (2011).

Assay [1] has as its target IKca channel (intermediate conductance potassium channel) (Homo sapiens, UniProt O15554). Briefly: modified biotin switch. It is filed as cell-based.
In assay [2] the target is cystathionine γ-lyase (CSE). Briefly: CSE activity assay after pre-incubation with the NO donor S-nitroso-glutathione. The format is biochemical.

Sequence of IKca channel (intermediate conductance potassium channel) (O15554 whole entry): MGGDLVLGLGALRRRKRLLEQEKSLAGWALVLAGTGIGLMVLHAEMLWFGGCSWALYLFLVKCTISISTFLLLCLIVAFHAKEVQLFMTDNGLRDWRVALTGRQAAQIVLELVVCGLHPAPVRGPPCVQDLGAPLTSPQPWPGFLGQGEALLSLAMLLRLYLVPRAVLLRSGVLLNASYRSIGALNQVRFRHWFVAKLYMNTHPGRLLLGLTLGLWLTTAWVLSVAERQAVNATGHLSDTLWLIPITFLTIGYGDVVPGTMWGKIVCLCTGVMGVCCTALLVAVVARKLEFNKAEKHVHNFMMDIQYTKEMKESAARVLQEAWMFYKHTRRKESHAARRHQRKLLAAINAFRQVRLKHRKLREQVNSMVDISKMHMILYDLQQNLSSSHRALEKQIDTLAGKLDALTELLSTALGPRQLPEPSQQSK

As to `S` [H2S], the “modified biotin switch (S-sulfhydration) assay, DTT-sensitive” value in assay [1] is reported as “IKca channels from human aortic endothelial cells are sulfhydrated by NaHS in a DTT-sensitive fashion”.

By IC50 is commonly meant the concentration that gives 50% inhibition. Turning to `[N]=O` [NO], the IC50 in assay [2] is about 100 nM.
